Laboratory results taken from publication PMC3765993, “The duration of sleep promoting efficacy by dual orexin receptor antagonists is dependent upon receptor occupancy threshold” (BMC Neuroscience, 2013).
Where two headings read alike, the source gives them in different places.

Legend:
[1] = Plasma and CSF compound levels in satellite rats; settings: rats
Procedure: Separately, the relationship between OX2R occupancy relative to plasma exposure was determined by administering DORA-12 intravenously (i.v.) over a range of doses to transgenic rats expressing human OX2R to determine a full occupancy curve over a wide range of plasma concentrations in order to define the maximal occupancy against which raw occupancy values could be normalized. This relationship was then used to determine the OX2R occupancy in PSG experiments from measured plasma concentrations.
Occupancy of human OX2R in transgenic rats expressing the receptor via the rat enolase promoter was performed ex vivo in radioligand-binding-displacement assays essentially as previously described with minor modifications. To determine the relationship between OX2R occupancy for a given compound over a full range of plasma and CSF concentrations, hOX2R-expressing rats were dosed i.v. with compound. Immediately following 30 min of i.v. administration, animals were anesthetized, sacrificed, and CSF, blood, and brain tissue were harvested and frozen for analysis. Frozen tissue was weighed and thawed coincident with homogenization. The homogenate was pelleted at 21,000 × g for 1 min and the pellet was resuspended. […] Non-specific binding was determined by the addition of 1000-fold excess unlabeled ligand. Experimental (dosed)-specific binding was compared with control (vehicle-dosed) binding ([specific total counts minus specific experimental counts]/specific total counts × 100 = percent occupancy). Raw occupancy values determined in this manner over a range of plasma and CSF values were then used to construct a normalized curve where the theoretical maximum occupancy value was defined as 100% and occupancies relative to plasma or CSF values were fit to a […] (hyperbola) curve (GraphPad Prism, San Diego, CA, USA). […] In separate experiments, plasma, CSF, and brain tissue was collected at time points following dosing to directly measure compound levels and corresponding OX2R occupancies at these times. Resulting occupancy relative to measured plasma levels of compound was fit to a normalized binding curve as described previously.

OX2R [2] = target: T1, OX2R (Homo sapiens, UniProt O43614); test: Human plasma concentration calculated for a given OX2R occupancy (from transgenic rat occupancy, free-fraction normalized); assay type: in vivo; settings: free + bound; normalized for free fraction (rat 1.4%, human 1.0%)
T1 sequence (O43614 1-444): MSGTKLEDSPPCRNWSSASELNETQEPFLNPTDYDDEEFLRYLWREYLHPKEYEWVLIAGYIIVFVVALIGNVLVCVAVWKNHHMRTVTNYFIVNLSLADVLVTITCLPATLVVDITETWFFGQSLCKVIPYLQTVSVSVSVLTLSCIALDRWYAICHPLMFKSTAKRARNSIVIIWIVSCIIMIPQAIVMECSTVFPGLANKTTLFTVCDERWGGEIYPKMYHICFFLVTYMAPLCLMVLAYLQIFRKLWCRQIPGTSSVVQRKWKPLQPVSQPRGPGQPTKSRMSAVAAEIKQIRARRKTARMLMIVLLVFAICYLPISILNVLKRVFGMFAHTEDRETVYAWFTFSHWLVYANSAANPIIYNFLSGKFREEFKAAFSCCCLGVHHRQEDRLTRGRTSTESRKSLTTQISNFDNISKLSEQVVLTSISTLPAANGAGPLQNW

dogs = settings: cited from earlier work
OX2R [3] = target: T1, OX2R; settings: free + bound; cited from earlier work
[4] = Free plasma fraction, human
Orexin 2 receptor = target: T2, Orexin 2 receptor (Homo sapiens, UniProt O43614); test: Orexin 2 receptor binding kinetics
T2 sequence (O43614 1-444): T1 sequence (O43614 1-444)

[5] = Unbound (free) plasma fraction, rat
[6] = Unbound (free) plasma fraction, dog
[7] = Suvorexant plasma levels in satellite dogs; settings: 1 or 3 mg/kg p.o.
[8] = Suvorexant plasma levels in humans (Phase 1)
OX2R [9] = target: T1, OX2R; test: OX2R occupancy, ex vivo radioligand-binding displacement in transgenic rats expressing human OX2R; parameters: from tissue; host or cells: brain homogenate of transgenic rats expressing hOX2R under the rat enolase promoter; species or system transgenic rat; settings: rats, calculated from plasma value on normalized occupancy curve
Text: Frozen tissue was weighed and thawed coincident with homogenization.

Cc1ccc(-n2nccn2)c(C(=O)N2CCN(c3nc4cc(Cl)ccc4o3)CC[C@H]2C)c1 [Suvorexant, [(7R)-4-(5-chloro-1,3-benzoxazol-2-yl)-7-methyl-1,4-diazepan-1-yl][5-methyl-2-(2H-1,2,3-triazol-2-yl)phenyl]methanone]
Plasma ([1]; dose 10 mg/kg): 1600.0 nM | Plasma ([1]; dose 30 mg/kg): 2100.0 nM | Plasma ([1]; dose 100 mg/kg): 5100.0 nM | Human plasma concentration calculated to correspond to 65% OX2R occupancy (OX2R [2]): 0.33 µM | Duration of effects on active wake (dogs; 1 mg/kg): up to 4 h | Duration of effects on active wake (dogs; 3 mg/kg): up to 7.5 h | Plasma level calculated to correspond to 80% OX2R occupancy in humans (OX2R [3]): 0.71 µM | fraction unbound [4]: 0.01 | T1/2 OFF (half-life off-rates) (Orexin 2 receptor): 1.49 h | T1/2 ON (binding half-life) (Orexin 2 receptor; almorexant applied 3-fold above its Kd (value an underestimate)): 1.34 h | fraction unbound [5]: 0.014 | fraction unbound [6]: 0.01 | Plasma concentration at time points when efficacy was observed [7]: > 342 nM | Plasma exposure corresponding to efficacy [7]: > 342 nM | Tmax ([8]; human, in vivo): ≤ 3 h | half-life ([8]; human, in vivo): > 8 h | Post-dose time by which mean plasma concentrations fell below level for 65% OX2R occupancy ([8]; humans, 10 and 20 mg doses): ≤ 8 h | OX2R Occ (% max) (OX2R [9]; dose 10 mg/kg): 92.6 % max | OX2R Occ (% max) (OX2R [9]; dose 30 mg/kg): 94.3 % max | OX2R Occ (% max) (OX2R [9]; dose 100 mg/kg): 97.6 % max
